Measurements reported in patent US20170007561A1, “CONTEMPORANEOUS, HETEROGENEOUSLY-ORIENTED, MULTI-TARGETED THERAPEUTIC MODIFICATION AND/OR MODULATION OF DISEASE BY ADMINISTRATION OF SULFUR-CONTAINING, AMINO ACID-SPECIFIC SMALL MOLECULES” (BioNumerik Pharmaceuticals, Inc., priority 2014, published 2017).
Where “and” joins values, the source holds several entries; their conditions need not be identical. Equal entries are not always repeated. Entries after “also recorded” stand apart in the source; their conditions may differ. Where two headings read alike, the source gives them in different places.

Tests used:
[1] = target: T1, human Trx with rat liver TrxR (Homo sapiens, UniProt P10599); assay: TrxR/Trx insulin disulfide reduction assay (NADPH oxidation 340 nm, insulin B chain precipitation 650 nm); assay type: biochemical; settings: Tavocept 0-10 mM, insulin 86 μM
T1 sequence (P10599 1-105): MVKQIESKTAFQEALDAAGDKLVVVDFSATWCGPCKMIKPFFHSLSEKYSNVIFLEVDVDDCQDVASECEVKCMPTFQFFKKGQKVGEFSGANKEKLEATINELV

Peroxiredoxin (Prx) = target: T2, Peroxiredoxin (Prx) (Homo sapiens, UniProt Q06830); assay: Peroxiredoxin activity (summary Table 27); assay type: biochemical
T2 construct: purchased SigmaAldrich

[2] = test system: bovine brain microtubule protein (α-/β-tubulin); assay: Microtubule protein polymerization assay (OD350); assay type: biochemical
[3] = target: T3, Mesenchymal Epithelial Transition (MET) Factor Kinase (Homo sapiens, UniProt P08581); assay: MET kinase activity (summary Table 27); assay type: biochemical
T3 construct: the kinase domain of MET (residues 956-end) was used in these experiments; GST (N); purchased SignalChem M52-18G-10; host or cells: Sf9
T3 sequence (P08581 956-1390 limits assumed): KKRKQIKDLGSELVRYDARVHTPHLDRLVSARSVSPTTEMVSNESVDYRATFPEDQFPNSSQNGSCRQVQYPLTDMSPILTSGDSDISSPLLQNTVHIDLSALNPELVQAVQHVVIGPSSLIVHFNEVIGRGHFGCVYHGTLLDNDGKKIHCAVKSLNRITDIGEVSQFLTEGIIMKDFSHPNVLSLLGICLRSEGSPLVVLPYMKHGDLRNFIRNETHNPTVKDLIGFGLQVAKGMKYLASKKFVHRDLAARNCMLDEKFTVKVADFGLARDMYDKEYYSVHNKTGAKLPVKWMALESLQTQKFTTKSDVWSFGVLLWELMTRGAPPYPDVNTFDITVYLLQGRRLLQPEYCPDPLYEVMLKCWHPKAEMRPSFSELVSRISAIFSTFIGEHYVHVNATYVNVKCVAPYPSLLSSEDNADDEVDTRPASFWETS

[4] = target: T4, Recombinant human peroxiredoxin 1 (Homo sapiens, UniProt Q06830); assay: LC-MS of trypsin or chymotrypsin digested Prx 1 after incubation with Tavocept; assay type: binding
T4 construct: purchased SigmaAldrich
T4 sequence (Q06830 1-199): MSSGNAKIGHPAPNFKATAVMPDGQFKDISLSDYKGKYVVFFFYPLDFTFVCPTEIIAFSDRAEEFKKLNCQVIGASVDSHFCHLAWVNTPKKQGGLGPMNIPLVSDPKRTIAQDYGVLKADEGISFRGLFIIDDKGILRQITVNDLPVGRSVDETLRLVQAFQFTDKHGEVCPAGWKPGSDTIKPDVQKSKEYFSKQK
Experimental: Recombinant human peroxiredoxin 1 (purchased from SigmaAldrich; 333 μg; 0.015 micromoles) was reduced using an excess of dithiothreitol (DTT; 35 micromoles) in NH4HCO3 buffer (40 mM, pH 8.0) at 37° C. for 50 minutes (total reaction volume was 750 μL; final Prx concentration was 20 μM; and final DTT concentration was 46 mM). […] (total reaction volume was 500 μL). After 16-18 hours incubation, each reaction was removed and chromatographed using G25 Sephadex columns.
In brief, the G25 chromatographed Prx1 incubation reactions were digested with Trypsin Gold. Trypsin Gold was dissolved in 400 μL of NH4HCO3 and 100 μL of acetonitrile. A 100-150 μL volume of this Trypsin Gold stock was then added to 500 μl of the aforementioned final sample with 75 μL of acetonitrile and then the reaction volume was adjusted to a total of 750 μL with NH4HCO3. The sample was incubated for 6 hours at 37° C. Chymotrypsin digests were by dissolving chymotrypsin in 1M HCL. A 50 μL volume of this chymotrypsin stock solution was added to added to 500 μl of the aforementioned final sample along with 10% (v/v) of CaCl2 (100 mM stock). NH4HCO3 buffer was then added to bring the total reaction volume to 750 μL. Chymotrypsin digests were incubated for 16 hours at 30° C. Following digest by either trypsin or chymotrypsin, reactions were lyophilized to dryness overnight and then resuspended in a minimal amount of HPLC grade water prior to LC MS analyses.
A Symmetry C18 HPLC column (Waters, Franklin, Mass.; 3.5 μm; 4.6×75 mm) and a Waters Alliance liquid chromatography system (Waters 2695; Franklin, Mass.) coupled to a Micromass single quadropole mass detector (Micromass ZMD; Manchester, UK) were used to analyze fragments from trypsin or chymotrypsin digested human Prx1. The mobile phase contained 0.1% of formic acid throughout the run and the flow rate was 0.35 ml/min. […]

[5] = cited from earlier work
FTase = target: T5, FTase (Homo sapiens, UniProt P49354+P49356); assay: FTase-mediated farnesylation of Dansyl-GCVLS peptide; assay type: biochemical
T5 construct: purchased Abcam
T5 sequence (P49356 whole entry, one chain of several): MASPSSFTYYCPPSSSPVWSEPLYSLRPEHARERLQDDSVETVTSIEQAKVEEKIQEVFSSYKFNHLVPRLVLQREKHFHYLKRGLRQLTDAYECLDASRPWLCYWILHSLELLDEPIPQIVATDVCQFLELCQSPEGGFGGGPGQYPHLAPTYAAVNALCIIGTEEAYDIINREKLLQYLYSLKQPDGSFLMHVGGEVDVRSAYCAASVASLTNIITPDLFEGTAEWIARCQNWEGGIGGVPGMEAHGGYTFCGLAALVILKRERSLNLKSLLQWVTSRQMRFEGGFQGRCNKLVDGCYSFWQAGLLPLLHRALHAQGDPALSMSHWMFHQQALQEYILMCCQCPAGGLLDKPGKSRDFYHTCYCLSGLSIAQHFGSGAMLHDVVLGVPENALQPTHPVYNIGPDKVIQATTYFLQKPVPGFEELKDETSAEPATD
Source text: Panel A: Progress curve showing FTase-mediated farnesylation of Dansyl-GCVLS peptide. Panel B: Relative rates from reactions shown in Panel A.

SMILES: O=S(=O)([O-])CCSSCCS(=O)(=O)[O-].[Na+].[Na+] [Tavocept, disodium 2,2′-dithio-bis-ethane sulfonate]
- Effect on TrxR/Trx mediated rate of NADPH oxidation during insulin reduction [1]: an effect on the TrxR/Trx mediated rate of NADPH oxidation
- Cellular consequence of BNP7787-modification and/or modulation: Prx (Peroxiredoxin (Prx)): BNP7787 disrupts active site structure (Prx) resulting in impaired
- inhibition of paclitaxel promoted microtubule protein polymerization ([2]; 12 mM Tavocept, qualitative): approximately 50%
- effect on paclitaxel-promoted microtubule protein hyperpolymerization ([2]; Tavocept 1, 4, 8, 12 and 16 mM, paclitaxel 10 μM): inhibit paclitaxel-promoted microtubule protein hyperpolymerization in a dose-dependent manner; also recorded: normalizes
- effect on GTP-catalyzed polymerization of microtubule protein ([2]; Tavocept 4, 6, 8, and 10 mM preincubated with microtubule protein on ice for 20 minutes): dose-dependent inhibitory effect; also recorded: inhibit GTP-catalyzed polymerization; also recorded: modulate tubulin polymerization in a concentration dependent manner
- effect on paclitaxel/GTP/MgCl2-catalyzed microtubule protein hyperpolymerization ([2]; Tavocept 6, 8, 10 and 12 mM): inhibit paclitaxel/GTP/MgCl2-catalyzed microtubule protein hyperpolymerization in a dose dependent manner
- Tavocept concentration at which final polymerization with paclitaxel was essentially equal to GTP control ([2]; paclitaxel 10 μM): ≥ 6 mM
- Tavocept concentrations that reproducibly inhibit paclitaxel promoted hyperpolymerization ([2]; paclitaxel 10 μM): > 1 mM
- Tavocept concentrations giving net polymerization equivalent to GTP/MgCl2 only control ([2]; paclitaxel/GTP/MgCl2 10 μM/1 mM/1 mM): 6 to 8 mM
- Cellular consequence of BNP7787-modification and/or modulation: MET [3]: Modification of non-active site cysteine(s) resulting in enzyme
- Tavocept-derived mesna Adduct detected? ([4]; chymotryptic fragment VCPTEIIAF (Cys 52)): Yes
- Tavocept-derived mesna Adduct detected? ([4]; chymotryptic fragment […] (Cys 173)): Yes
- Tavocept-derived mesna Adduct detected? ([4]; tryptic fragment […] (Cys 173)): Yes
- Tavocept in plasma ([5]; 41 g/m^2 Tavocept): ~14 mM
- concentrations of Tavocept achieved in the clinic ([5]; as high as): ≤ 18000 µM
- pharmacologically achievable plasma levels ([5]; doses of 18.4 g/m^2 and higher): ≥ 8 mM
- Plasma concentrations achieved in clinical trials ([5]; in vivo): 10000 µM
- pharmacologically achievable concentrations ([5]; in vivo): 6-10 mM
- Cmax ([5]; read-out: Cmax values in plasma, dose of 18.4 g/m^2): ≥ 10000 µM and ~10000 µM
- Cmax ([5]; read-out: Cmax values in plasma, doses as high as 41 g/m^2, typical): ~10000 µM
- Cmax ([5]; read-out: typical Cmax values, administered at 18 g/m^2): ~10000 µM
- effect on FTase activity (FTase): Inhibition of FTase activity
